According to ChEMBL document CHEMBL1201862, “PubChem BioAssay data set” (2004):
Active and inactive are the calls of the source.

Experiments:
Protein Tat = Protein Tat (Human immunodeficiency virus type 1 group M subtype B (isolate HXB2)(HIV-1), UniProt P04608); assay type: functional;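 further: tat binding to TAR RNA read out by fluorescence polarization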
[1] = Luminescence-based cell-based high throughput dose response assay to identify activators of the DAF-12 from the parasite S. stercoralis (ssDAF-12).; assay type: functional
[2] = target: T1, Oxysterols receptor LXR-beta (Homo sapiens, UniProt P55055); experiment: LXR agonists, Gal4 luciferase reporter, dose response, counter-screen for ssDAF-12 agonist project, cell-based, luminescence, HEK293, S. stercoralis campaign (AID 720737); assay type: functional; conditions: read-out: IC50 (the source's name)
T1 sequence (P55055 whole entry): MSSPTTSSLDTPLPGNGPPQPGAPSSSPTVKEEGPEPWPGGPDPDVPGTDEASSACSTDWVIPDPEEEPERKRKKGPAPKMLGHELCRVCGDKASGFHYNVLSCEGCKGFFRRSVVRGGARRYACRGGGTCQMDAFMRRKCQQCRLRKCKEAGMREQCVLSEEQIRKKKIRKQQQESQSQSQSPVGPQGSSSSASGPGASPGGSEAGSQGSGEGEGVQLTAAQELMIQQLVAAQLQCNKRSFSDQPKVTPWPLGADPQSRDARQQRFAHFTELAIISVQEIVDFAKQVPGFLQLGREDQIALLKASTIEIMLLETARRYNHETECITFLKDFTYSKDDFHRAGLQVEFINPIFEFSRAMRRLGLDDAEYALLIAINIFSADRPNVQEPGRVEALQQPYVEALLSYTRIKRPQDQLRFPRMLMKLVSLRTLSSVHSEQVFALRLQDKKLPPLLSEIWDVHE

[3] = Artemis endonuclease inhibitor potency, dose response, biochemical, fluorescence intensity (AID 720701); assay type: functional;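 further: Artemis endonuclease enzyme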
[4] = microbe, parasite or virus in culture; assay type: functional; conditions: Mycobacterium tuberculosis
[5] = target: T1, Oxysterols receptor LXR-beta; assay type: functional, cell-based
[6] = inhibitors of PGC1a acetylation in cells, dose response, cell-based, cherry-picked samples (AID 720514); assay type: functional;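 further: potency may reflect raised or lowered acetylation signal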
Beta-galactosidase = Beta-galactosidase (Escherichia coli, UniProt Q8VNN2); experiment: beta-galactosidase enzyme inhibitors and activators, dose response, artefact control for CCR6 antagonist project, biochemical, E. coli enzyme, set 3 (AID 504712); assay type: functional
Sequence of Beta-galactosidase (Q8VNN2 whole entry): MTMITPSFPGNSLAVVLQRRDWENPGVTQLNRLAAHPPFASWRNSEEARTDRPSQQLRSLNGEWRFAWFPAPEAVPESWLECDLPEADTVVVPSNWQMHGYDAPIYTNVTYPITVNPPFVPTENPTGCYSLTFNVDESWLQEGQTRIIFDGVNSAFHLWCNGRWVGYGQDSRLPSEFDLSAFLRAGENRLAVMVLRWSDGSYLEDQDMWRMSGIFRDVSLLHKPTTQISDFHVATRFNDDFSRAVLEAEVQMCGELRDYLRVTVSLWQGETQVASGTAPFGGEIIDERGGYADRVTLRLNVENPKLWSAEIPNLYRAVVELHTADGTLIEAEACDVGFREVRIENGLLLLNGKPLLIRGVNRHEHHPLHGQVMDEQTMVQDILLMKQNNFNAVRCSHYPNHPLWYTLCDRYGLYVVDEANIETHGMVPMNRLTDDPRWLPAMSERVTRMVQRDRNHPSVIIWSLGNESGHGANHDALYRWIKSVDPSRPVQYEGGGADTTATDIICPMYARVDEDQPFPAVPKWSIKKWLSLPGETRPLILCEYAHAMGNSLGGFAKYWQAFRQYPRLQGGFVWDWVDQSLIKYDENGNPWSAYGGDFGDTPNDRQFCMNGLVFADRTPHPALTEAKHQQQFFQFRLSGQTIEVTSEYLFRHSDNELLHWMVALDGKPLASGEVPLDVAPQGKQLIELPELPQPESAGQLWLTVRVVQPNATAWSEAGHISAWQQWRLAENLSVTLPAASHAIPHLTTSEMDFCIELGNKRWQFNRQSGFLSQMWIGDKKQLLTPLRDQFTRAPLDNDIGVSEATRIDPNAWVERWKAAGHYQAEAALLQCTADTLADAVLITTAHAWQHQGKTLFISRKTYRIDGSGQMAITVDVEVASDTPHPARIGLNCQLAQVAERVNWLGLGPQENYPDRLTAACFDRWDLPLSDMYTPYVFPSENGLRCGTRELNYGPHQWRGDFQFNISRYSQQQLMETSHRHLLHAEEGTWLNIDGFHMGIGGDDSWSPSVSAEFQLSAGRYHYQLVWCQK

[7] = Counterscreen for AddAB inhibitors: absorbance-based bacterial cell-based high throughput dose response assay for inhibitors of bacterial viability. [Related pubchem assays (depositor defined):AID435030, AID449728, AID449731, AID488942, AID488955, AID488956]; assay type: functional
Caspase-6 = Caspase-6 (Homo sapiens, UniProt P55212); experiment: human caspase-6 inhibitors, dose response, biochemical, VEID-R110 fluorescence, cherry-pick (AID 720632)
Sequence of Caspase-6 (P55212 24-179 limits assumed): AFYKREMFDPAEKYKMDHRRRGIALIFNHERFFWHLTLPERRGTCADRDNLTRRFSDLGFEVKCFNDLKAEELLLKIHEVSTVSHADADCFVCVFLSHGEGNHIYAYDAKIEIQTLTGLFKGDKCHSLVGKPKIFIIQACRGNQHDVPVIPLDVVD
Sequence of Caspase-6 (P55212 194-293 limits assumed): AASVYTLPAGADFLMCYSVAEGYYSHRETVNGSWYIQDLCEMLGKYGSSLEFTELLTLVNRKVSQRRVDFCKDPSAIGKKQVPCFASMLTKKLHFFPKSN

Exodeoxyribonuclease V = target: T2, Exodeoxyribonuclease V (Escherichia coli (strain K12), UniProt P04993+P07648+P08394); experiment: E. coli RecBCD inhibitors, dose response, counter-screen for AddAB inhibitor project, absorbance, V66 E. coli, mutant T4 phage (AID 492957); assay type: functional, cell-based, Escherichia coli str. K-12 substr. MG1655
T2 sequence (P04993 whole entry): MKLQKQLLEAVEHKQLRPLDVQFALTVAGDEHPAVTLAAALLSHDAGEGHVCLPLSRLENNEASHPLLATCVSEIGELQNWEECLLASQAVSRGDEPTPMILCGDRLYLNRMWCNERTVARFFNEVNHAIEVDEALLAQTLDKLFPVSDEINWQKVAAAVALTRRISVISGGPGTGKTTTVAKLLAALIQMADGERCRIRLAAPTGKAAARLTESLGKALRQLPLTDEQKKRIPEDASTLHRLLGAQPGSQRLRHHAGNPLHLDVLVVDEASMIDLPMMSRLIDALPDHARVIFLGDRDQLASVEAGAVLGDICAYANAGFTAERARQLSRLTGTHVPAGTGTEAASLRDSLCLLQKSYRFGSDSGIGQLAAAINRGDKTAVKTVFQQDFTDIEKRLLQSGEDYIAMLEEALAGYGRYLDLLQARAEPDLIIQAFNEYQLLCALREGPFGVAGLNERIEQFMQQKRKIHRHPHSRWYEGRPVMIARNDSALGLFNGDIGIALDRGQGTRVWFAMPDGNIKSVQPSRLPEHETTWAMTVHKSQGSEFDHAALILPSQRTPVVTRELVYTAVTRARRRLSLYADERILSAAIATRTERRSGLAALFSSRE
T2 sequence (P07648 whole entry): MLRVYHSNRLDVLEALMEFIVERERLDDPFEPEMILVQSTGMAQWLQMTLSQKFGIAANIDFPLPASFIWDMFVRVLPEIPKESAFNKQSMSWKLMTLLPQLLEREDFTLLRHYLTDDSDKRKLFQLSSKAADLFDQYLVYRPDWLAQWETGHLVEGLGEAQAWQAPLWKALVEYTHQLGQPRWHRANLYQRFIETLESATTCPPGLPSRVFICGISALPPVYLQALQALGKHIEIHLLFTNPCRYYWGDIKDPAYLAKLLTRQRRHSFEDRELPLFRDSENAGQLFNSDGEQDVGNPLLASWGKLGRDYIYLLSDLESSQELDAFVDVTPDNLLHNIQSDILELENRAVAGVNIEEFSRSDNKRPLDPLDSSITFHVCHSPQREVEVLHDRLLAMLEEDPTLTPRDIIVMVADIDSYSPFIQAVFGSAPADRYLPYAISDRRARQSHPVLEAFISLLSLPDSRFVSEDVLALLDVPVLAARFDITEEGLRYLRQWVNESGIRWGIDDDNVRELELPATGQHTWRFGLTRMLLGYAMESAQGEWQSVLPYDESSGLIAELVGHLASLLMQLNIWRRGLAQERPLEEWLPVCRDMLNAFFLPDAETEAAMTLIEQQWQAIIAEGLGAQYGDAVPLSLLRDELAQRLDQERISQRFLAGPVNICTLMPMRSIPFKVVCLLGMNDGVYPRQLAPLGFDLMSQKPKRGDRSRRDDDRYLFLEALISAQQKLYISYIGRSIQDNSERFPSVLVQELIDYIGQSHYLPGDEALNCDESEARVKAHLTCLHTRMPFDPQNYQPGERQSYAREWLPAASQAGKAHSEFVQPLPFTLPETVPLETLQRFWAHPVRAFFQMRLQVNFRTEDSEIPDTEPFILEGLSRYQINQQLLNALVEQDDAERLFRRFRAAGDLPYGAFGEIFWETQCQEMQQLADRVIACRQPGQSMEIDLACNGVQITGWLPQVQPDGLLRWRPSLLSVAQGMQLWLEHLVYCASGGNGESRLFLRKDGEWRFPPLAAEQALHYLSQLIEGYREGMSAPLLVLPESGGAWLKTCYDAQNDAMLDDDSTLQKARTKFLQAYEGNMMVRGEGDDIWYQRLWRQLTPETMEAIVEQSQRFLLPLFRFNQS
T2 sequence (P08394 whole entry): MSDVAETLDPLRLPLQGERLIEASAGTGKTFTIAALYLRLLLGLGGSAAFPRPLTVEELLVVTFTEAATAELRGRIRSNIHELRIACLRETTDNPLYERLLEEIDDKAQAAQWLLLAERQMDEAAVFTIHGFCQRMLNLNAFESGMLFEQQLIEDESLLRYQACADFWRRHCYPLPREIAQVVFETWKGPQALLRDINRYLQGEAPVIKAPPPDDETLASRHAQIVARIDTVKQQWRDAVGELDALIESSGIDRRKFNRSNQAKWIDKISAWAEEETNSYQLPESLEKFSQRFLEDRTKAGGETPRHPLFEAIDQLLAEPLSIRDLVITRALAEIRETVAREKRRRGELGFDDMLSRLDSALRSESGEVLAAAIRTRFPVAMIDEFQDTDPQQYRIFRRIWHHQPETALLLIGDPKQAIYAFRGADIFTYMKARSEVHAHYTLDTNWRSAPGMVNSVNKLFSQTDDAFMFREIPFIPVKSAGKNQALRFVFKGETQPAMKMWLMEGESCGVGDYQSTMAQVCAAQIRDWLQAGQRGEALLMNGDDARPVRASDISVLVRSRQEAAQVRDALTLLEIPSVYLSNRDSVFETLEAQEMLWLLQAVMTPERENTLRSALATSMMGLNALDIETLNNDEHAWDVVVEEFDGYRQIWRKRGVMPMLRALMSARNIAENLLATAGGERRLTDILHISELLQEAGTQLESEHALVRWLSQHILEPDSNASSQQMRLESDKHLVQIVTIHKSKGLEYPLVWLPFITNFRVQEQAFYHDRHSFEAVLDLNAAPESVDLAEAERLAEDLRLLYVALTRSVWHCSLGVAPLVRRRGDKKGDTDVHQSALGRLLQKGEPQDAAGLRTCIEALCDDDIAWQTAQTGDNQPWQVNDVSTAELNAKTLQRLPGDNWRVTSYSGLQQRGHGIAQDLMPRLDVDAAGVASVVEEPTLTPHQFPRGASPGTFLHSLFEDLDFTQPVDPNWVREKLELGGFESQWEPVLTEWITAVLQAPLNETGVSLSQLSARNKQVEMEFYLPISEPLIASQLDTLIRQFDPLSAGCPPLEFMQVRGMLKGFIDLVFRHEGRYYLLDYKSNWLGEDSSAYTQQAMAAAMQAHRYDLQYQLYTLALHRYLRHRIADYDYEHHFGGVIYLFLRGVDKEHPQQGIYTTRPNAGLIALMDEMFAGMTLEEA

[8] = HEK293T cytotoxicity, dose response, cytotoxicity control for miR-122 modulator project, cell-based, inhibitor set, cherry-pick, set 2 (AID 720697); assay type: functional
[9] = miR-122 activators in hepatoma reporter cells, dose response, cell-based, Huh7 psiCHECK-miR122, Renilla luciferase, cherry-picked (AID 651956); assay type: functional;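 further: huh7 hepatoma cells stably carrying a psiCHECK-2 miR-122 sensor plasmid; renilla luciferase signal reporting endogenous miR-122 activity after 48 h compound exposure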
[10] = PAX2 cell-based inhibition, dose response, selectivity assay for PAX8 inhibitor project, plate reader, dry powder samples (AID 743048); assay type: functional;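 further: HEK293 cells carrying a WT1 promoter luciferase reporter driven by expressed Pax2; potency is for inhibition of Pax2 driven reporter signal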
[11] = cytotoxicity dependent on PAX8, dose response, cell-based, plate reader, dry powder (AID 743049); assay type: functional
[12] = PAX5 activity inhibitors, dose response, selectivity assay for PAX8 inhibitor project, cell-based, plate reader, dry powder samples (AID 743047); assay type: functional;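 further: HEK293 cells carrying a Pax5 driven CD19 promoter luciferase reporter; potency of inhibitors that lower reporter luminescence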
[13] = cytotoxicity in COV434 cells, dose response, cytotoxicity control for PAX8 inhibitor project, cell-based, plate reader, dry powder, SA7 (AID 743145); assay type: functional
[14] = P. falciparum ATP4 D1247Y mutant growth inhibitors, dose response, NITD609-resistant line, SYBR Green, dry powder (AID 1159571); assay type: functional, cell-based;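 further: parasites synchronized at ring stage by sorbitol before testing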
[15] = P. falciparum Dd2 growth inhibitors, dose response, SYBR Green, dry powder samples (AID 1159566); assay type: functional, cell-based;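 further: potency for growth inhibition with lower SYBR green DNA signal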
[16] = P. falciparum 3D7-ScDHODH growth inhibitors, dose response, SYBR Green, dry powder samples (AID 1159570); assay type: functional, cell-based;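 further: parasite growth measured after 72 hours of compound exposure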
[17] = P. falciparum Dd2 growth inhibitors, dose response, SYBR Green, cherry-picked samples (AID 1159567); assay type: functional, cell-based
[18] = cytotoxicity toward Colo320 cells – cell-based, CellTiter-Glo luminescence, IC50, dose response (AID 1117334); assay type: functional; conditions: COLO 320
[19] = cytotoxicity toward HCT116 cells – cell-based, CellTiter-Glo luminescence, IC50, dose response (AID 1117332); assay type: functional; conditions: HCT-116
[20] = RKO cell viability reduction, dose response, CellTiter-Glo luminescence (AID 1117322); assay type: functional
[21] = cytotoxicity toward HT-29 cells – cell-based, CellTiter-Glo luminescence, IC50, dose response (AID 1117330); assay type: functional
[22] = Concentration-dependent survival of SW480 colon cancer line, luminescence detection with CellTiter-Glo, half-maximal inhibitory concentration (AID 1117338); assay type: functional
[23] = CellTiter-Glo luminescent dose response of DLD-1 viability loss (AID 1117352); assay type: functional
[24] = SNU-C1 cell viability reduction, dose response, CellTiter-Glo luminescence (AID 1117323); assay type: functional, cell-based

Sequence of Protein Tat (P04608 whole entry): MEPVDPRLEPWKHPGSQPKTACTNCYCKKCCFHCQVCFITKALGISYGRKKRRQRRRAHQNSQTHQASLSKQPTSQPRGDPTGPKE

FC(F)(F)c1cc(-c2ccco2)nc(NCc2cccnc2)n1
IC50 (Protein Tat): > 100 µM (active)

COc1ccc(NC(=O)NC(C)C2CC3CCC2C3)cc1 (configuration not stated)
IC50 [1]: > 67.5 µM (inactive)
EC50 [2]: > 67.5 µM (inactive)

CC1CCCCN1CCNC(=O)CC1Oc2ccccc2NC1=O (configuration not stated)
IC50 [1]: > 67.5 µM (inactive)
EC50 [2]: > 67.5 µM (inactive)

COc1ccc2nc(NC(=O)C3CCCN(S(=O)(=O)c4cccs4)C3)sc2c1 (configuration not stated)
IC50 [3]: > 20 µM (inactive)
CC50 [4]: 35.4 µM (active)

Cc1nn(-c2ccc(Br)cc2)c(=O)c2ccccc12
EC50 (cells): > 67.6 µM (inactive)
EC50 [5]: > 67.6 µM (inactive)

O=C(C(Br)=Cc1ccccc1)c1ccccc1
AC50 [6]: 10.9 µM (active)

O=C(O)c1ccc(N/N=C/C=C/c2ccc([N+](=O)[O-])o2)cc1
IC50 (Beta-galactosidase): 33 µM (active)
IC50 [7]: 55.5 µM (inactive)
AC50 (Caspase-6): 3.34 µM (active)
IC50 (Exodeoxyribonuclease V): > 119 µM (inactive)

O=C(Nc1ccc(F)cc1)N1CCCCN2[C@H](CO)[C@@H](c3ccc(C#Cc4ccccc4)cc3)[C@H]2C1
AC50 [8]: 8.31 µM (active)
AC50 [9]: 10.5 µM (active)
AC50 [6]: 22.2 µM (active)

N#C[C@@H]1[C@@H](c2ccc(C3=CCCCC3)cc2)[C@@H](CO)N1C(=O)NC1CCCCC1
AC50 [10]: > 32 µM (inactive)
AC50 [11]: 10.6 µM (active)
AC50 [12]: 29.3 µM (active)
AC50 [13]: 67.3 µM (active)

O=C(Cc1ccccc1)N1CC(=O)N2[C@H](CO)[C@H](c3ccc(C#Cc4ccccc4)cc3)[C@H]2C1
AC50 [14]: 0.0288 µM (active)
AC50 [15]: 0.0291 µM (active)
AC50 [16]: 0.0554 µM (active)
AC50 [17]: < 0.3 µM (active)

OC[C@@H](O)[C@H](O)[C@H](O)[C@@H](O)CO [GALACTITOL]
IC50 [18]: > 20 µM (inactive)
IC50 [19]: > 20 µM (inactive)
IC50 [20]: > 20 µM (inactive)
IC50 [21]: > 20 µM (inactive)
IC50 [22]: > 20 µM (inactive)
IC50 [23]: > 20 µM (inactive)
IC50 [24]: > 20 µM (inactive)
